Several values for one entry are separate records, joined by “and”; a condition that tells them apart may be missing. Equal values may be shown once.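 Step 1: Grow cells in 96-well plates. Step 2: Expose to compound for 48 hours at 5 concentrations. Step 3: Interpolate endpoints linearly; if unreached, use highest concentration. GI50 = concentration required for 50% inhibition of growth. TGI marks complete inhibition of growth.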

Holding throughout (assay): NCI tumour cell line growth inhibition, 48 h
Assay [1] deals with 786-0 renal.
Assay [2] relates to MCF7 breast.
For assay [3], the system named is OVCAR-5 ovarian.
The subject of assay [4] is OVCAR-8 ovarian.
In assay [5] the test system is RPMI-8226 leukemia.
Assay [6] deals with SNB-19 CNS.
Assay [7] deals with U251 CNS.
Assay [8] concerns A549 NSCLC.
In assay [9] the test system is HOP-62 NSCLC.
Assay [10] concerns SR leukemia.

For the molecule `Cc1cc(N(CCCNc2ccnc3cc(Cl)ccc23)Cc2ccc3c(c2)OCO3)nc(N2CCOCC2)n1`, the GI50 in assay [1] is 254 nM; in assay [2] it was 286 nM; in assay [3], 290 nM; in [4] it was 312 nM; in [5] it was 330 nM; in [6], 325 nM. Further, in assay [7], the GI50 is 323 nM. Also, the TGI in assay [1] was 0.907 µM; in assay [2], 92 µM; in assay [3] it was 22.3 µM; in [4], 25.6 µM; in assay [5] it was 2150 nM; in assay [6], more than 100 µM. For the same molecule, in [7], the TGI was 3.18 µM.
As to `COC12OCCN(C)C1=CC(=O)C1=NNC(C)C12` (stereo unspecified), the TGI is more than 100 µM in [1]; more than 100 µM in [8]; more than 100 µM in assay [4]; more than 100000 nM in [5]; more than 100 µM in [7].
As for `COc1cccc2c1C(=O)c1c(O)c3c(c(O)c1C2=O)C[C@@](O)(/C(C)=N/NC(=O)c1ccc(Cl)cc1)C[C@@H]3OC1CC(N)C(O)C(C)O1` (stereo partly specified), the GI50 in assay [1] is 249 nM; in assay [8] it was 124 nM; in assay [9], 215 nM; in assay [3], 379 nM; in assay [4] it was 268 nM; in assay [5] it was 216 nM. In assay [6], the GI50 was 162 nM. Further, the TGI amounted to 1.69 µM in assay [1]; 1.85 µM in [8]; 1.94 µM in assay [9]; 3.81 µM in assay [3]; 3.02 µM in assay [4]; 1470 nM in assay [5]. The TGI in assay [6] was determined as 1.9 µM.
`[N-]=[N+]=N/C1=C/CCCCC(=O)C1`: the TGI in assay [1] was more than 100 µM; in assay [8], more than 100 µM; in assay [9] it was more than 100 µM; in assay [3], more than 100 µM; in [4], more than 100 µM; in assay [5], more than 100000 nM. This molecule also yielded a TGI in assay [6] of more than 100 µM.
`COc1ccc(-c2nnc(N3CCN(C(=O)CN4CCN(c5ccccc5)CC4)CC3)nc2-c2ccc(OC)cc2)cc1`: the GI50 in assay [1] is 5370 nM; in [8], 4850 nM; in assay [9], 13000 nM; in assay [2], 2800 nM; in [3], more than 100000 nM; in assay [4], 7150 nM. Besides, the GI50 was 2060 nM in [5], 12800 nM in [6] and 4140 nM in [7]. Also, the TGI in [1] is 29.3 µM; in assay [8] it was more than 100 µM; in assay [9], 42.7 µM; in assay [2] it was more than 100 µM; in [3] it was more than 100 µM; in assay [4], more than 100 µM. Besides, the values for the TGI in assay [5], in assay [6] and in [7] were 5160 nM, 77.3 µM and more than 100 µM, respectively.
Turning to `C/C(=N\NC(=S)N1CCCCCC1)c1ccccn1`, the GI50 was 99.2 nM in [1]; less than 18.8 nM in [8]; 38.1 nM in assay [9]; less than 16.5 nM in assay [3]; 101 nM in [6]; less than 13.1 nM in assay [7]. In addition, the TGI in assay [1] was 2.17 µM and 3.12 µM; in assay [8], 6.46 µM and 2.49 µM; in assay [9], 2.4 µM and 3.98 µM; in [2], 0.0245 µM; in assay [3], 2.67 µM and 3.98 µM; in assay [4], 3.48 µM and 4.57 µM. Also, the TGI in [5] is 321 nM and 132 nM; in [6] it was 4.38 µM and 6.44 µM; in assay [7], 1.24 µM and 1.29 µM.
As to `CCN(CC)CCSc1c2ccccc2nc2c(OC)ccc(OC)c12`, the TGI was more than 20.6 µM in assay [1]; 50.1 µM in assay [8]; more than 70.2 µM in assay [9]; 48.2 µM in [3]; 12 µM in assay [4]; more than 100 µM in assay [6]. Moreover, the TGI in assay [10] was 10.7 µM; in [7], 49.4 µM.
Take `CCCCCCCN=C(N)c1ccc(N2CCN(c3ccc(C(N)=NCCCCCCC)cc3)CC2)cc1`: the GI50 in assay [1] was 596 nM; in assay [8], 260 nM; in [9] it was 2500 nM; in assay [2], 208 nM; in assay [3], 849 nM; in [4], 376 nM. The values for the GI50 in assay [5], in [6] and in assay [7] were 785 nM, 643 nM and 1450 nM, respectively. For the same molecule, the TGI in assay [1] was more than 100 µM; in assay [8] it was 15 µM; in assay [9], more than 100 µM; in [3], 29.3 µM; in assay [4], 7.34 µM; in assay [5] it was more than 100000 nM. The TGI in [6] is 17.4 µM; in [7], 9.34 µM.
Turning to `O=C1CCC(=O)c2c1c(O)c1ccncc1c2O`, the TGI in assay [1] came out at 29.1 µM; in [8], 43.5 µM; in assay [9], 69 µM; in [3] it was 38.2 µM; in assay [4], 25.3 µM; in assay [5], 55500 nM. For the same molecule, the TGI in assay [6] was determined as 89.2 µM; in assay [10] it was 34.7 µM; in assay [7], 64.3 µM.
For the molecule `O=C1c2cc3c(cc2-c2c1c1cc(Cl)c(Cl)cc1c(=O)n2C[C@H](O)CO)OCO3`, the GI50 in assay [1] is less than 10 nM; in assay [8], less than 10 nM; in [9], less than 10 nM; in assay [3], 18.4 nM; in assay [4], less than 10 nM; in [5] it was less than 10 nM. The GI50 in assay [6], in assay [10] and in [7] was less than 10 nM each time. For the same molecule, the TGI in assay [1] amounted to 0.187 µM; in assay [8] it was 0.253 µM; in [9], 0.0326 µM; in [3], 0.955 µM; in assay [4], 1.16 µM; in assay [5], 188 nM. Besides, the TGI in assay [6] stood at 2.79 µM; in [10], 3.78 µM; in assay [7] it was 0.0368 µM.
`COc1ccc(/C(=C\C=C(C#N)C#N)Sc2nc3ccccc3s2)cc1`: the GI50 in assay [1] is 1700 nM; in assay [8] it was 15500 nM; in assay [9], 8160 nM; in assay [2], 2260 nM; in assay [3], 7650 nM; in [4] it was 13700 nM. Besides, the results for the GI50 in assay [6] and in assay [7] were 12600 nM and 3390 nM, respectively. The TGI in assay [1] was 5.66 µM; in assay [8], more than 50 µM; in assay [9], 16.7 µM; in assay [2] it was 17.9 µM; in assay [3] it was 15.1 µM; in [4], 33.9 µM. Also, the TGI in assay [6] was 29.6 µM; in [7], 11 µM.

(Values after PubChem BioAssay (NCI).)
